# Reference: patent US20170232083A1, “METHODS OF DIAGNOSIS AND TREATMENT OF CELIAC DISEASE IN CHILDREN” (priority 2014, published 2017)
# Tested on: PBMC (polyclonal gluten-specific T cells) of paediatric and adult CD patients
# Assay: IFN-γ ELISpot of PBMC after 3 day oral wheat challenge (SFU, % of maximal peptide response, dominance scores, EC50; Examples 5-6)
# Type: cell-based, human
# Details: for Cross-reactive T cell response: following wheat challenge
# [1] = subject I (3-5yrs/6-10yrs part)
# [2] = subject J (3-5yrs/6-10yrs part)
# [3] = subject K (3-5yrs/6-10yrs part)
# [4] = subject V (3-5yrs/6-10yrs part)
# [5] = subject W (3-5yrs/6-10yrs part)
# [6] = subject Y (3-5yrs/6-10yrs part)
# [7] = subject five (3-5yrs/6-10yrs part)
# [8] = subject seven (3-5yrs/6-10yrs part)
# [9] = subject six (3-5yrs/6-10yrs part)
# [10] = subject ten (3-5yrs/6-10yrs part)
# [11] = subject two (3-5yrs/6-10yrs part)
Sequence,"Cross-reactive T cell response (subject A, 11-17yrs)","Cross-reactive T cell response (subject D, 11-17yrs)","Significant response as a percentage of maximal peptide SFU (subject E, 11-17yrs)","Cross-reactive T cell response (subject E, 11-17yrs)","Significant response as a percentage of maximal peptide SFU (subject F, 11-17yrs)","Cross-reactive T cell response (subject F, 11-17yrs)","Cross-reactive T cell response (subject G, 11-17yrs)",Cross-reactive T cell response (subject H),Cross-reactive T cell response [1],Significant response as a percentage of maximal peptide SFU (subject J),Cross-reactive T cell response [2],Significant response as a percentage of maximal peptide SFU (subject K),Cross-reactive T cell response [3],"Cross-reactive T cell response (subject P, 11-17yrs)","Significant response as a percentage of maximal peptide SFU (subject Q, 11-17yrs)","Cross-reactive T cell response (subject Q, 11-17yrs)","Significant response as a percentage of maximal peptide SFU (subject T, 11-17yrs)","Cross-reactive T cell response (subject T, 11-17yrs)","Significant response as a percentage of maximal peptide SFU (subject U, 11-17yrs)","Cross-reactive T cell response (subject U, 11-17yrs)",also measured
QPFPQPEQELPLQ,4 SFU,7 SFU,′′ (21-40% = ′′),46 SFU,′ (11-20% = ′),31 SFU,1 SFU,5 SFU,6 SFU,′′ (21-40% = ′′),57 SFU,′ (11-20% = ′),13 SFU,17 SFU,′ (11-20% = ′),14 SFU,′′ (21-40% = ′′),36 SFU,′ (11-20% = ′),12 SFU,"Cross-reactive T cell response [4]: 7 SFU; Cross-reactive T cell response [5]: 0 SFU; Cross-reactive T cell response [6]: 0 SFU; Cross-reactive T cell response [7]: 33 SFU; Cross-reactive T cell response (subject nine, 11-17yrs): 1 SFU; Cross-reactive T cell response [8]: 8 SFU; Cross-reactive T cell response [9]: 5 SFU; Significant response as a percentage of maximal peptide SFU (subject ten): + (>70% = +); Cross-reactive T cell response [10]: 15 SFU; Cross-reactive T cell response [11]: 9 SFU"
QPFPQPEQPFPLQ,5 SFU,16 SFU,′′ (21-40% = ′′),70 SFU,′′ (21-40% = ′′),64 SFU,10 SFU,4 SFU,13 SFU,′′′ (41-70% = ′′′),88 SFU,′′′ (41-70% = ′′′),29 SFU,21 SFU,+ (>70% = +),83 SFU,+ (>70% = +),94 SFU,′′ (21-40% = ′′),18 SFU,"Significant response as a percentage of maximal peptide SFU (subject D, 11-17yrs): ′′′ (41-70% = ′′′); Significant response as a percentage of maximal peptide SFU (subject G, 11-17yrs): ′′′ (41-70% = ′′′); Significant response as a percentage of maximal peptide SFU (subject I): + (>70% = +); Significant response as a percentage of maximal peptide SFU (subject V): ′′′ (41-70% = ′′′); Cross-reactive T cell response [4]: 22 SFU; Cross-reactive T cell response [5]: 8 SFU; Cross-reactive T cell response [6]: 9 SFU; Significant response as a percentage of maximal peptide SFU (subject five): + (>70% = +); Cross-reactive T cell response [7]: 45 SFU; Cross-reactive T cell response (subject nine, 11-17yrs): 0 SFU; Cross-reactive T cell response [8]: 6 SFU; Significant response as a percentage of maximal peptide SFU (subject six): + (>70% = +); Cross-reactive T cell response [9]: 12 SFU; Significant response as a percentage of maximal peptide SFU (subject ten): + (>70% = +); Cross-reactive T cell response [10]: 13 SFU; Significant response as a percentage of maximal peptide SFU (subject two): + (>70% = +); Cross-reactive T cell response [11]: 65 SFU"
QPFPQPEQPFPQS,4 SFU,15 SFU,′′ (21-40% = ′′),46 SFU,′ (11-20% = ′),35 SFU,5 SFU,4 SFU,2 SFU,′′ (21-40% = ′′),57 SFU,′′ (21-40% = ′′),18 SFU,13 SFU,′′′ (41-70% = ′′′),55 SFU,+ (>70% = +),70 SFU,′′ (21-40% = ′′),27 SFU,"Significant response as a percentage of maximal peptide SFU (subject D, 11-17yrs): ′′′ (41-70% = ′′′); Significant response as a percentage of maximal peptide SFU (subject V): + (>70% = +); Cross-reactive T cell response [4]: 25 SFU; Cross-reactive T cell response [5]: 6 SFU; Cross-reactive T cell response [6]: 4 SFU; Significant response as a percentage of maximal peptide SFU (subject five): ′′′ (41-70% = ′′′); Cross-reactive T cell response [7]: 32 SFU; Cross-reactive T cell response (subject nine, 11-17yrs): 1 SFU; Significant response as a percentage of maximal peptide SFU (subject seven): ′′′ (41-70% = ′′′); Cross-reactive T cell response [8]: 11 SFU; Cross-reactive T cell response [9]: 7 SFU; Significant response as a percentage of maximal peptide SFU (subject ten): + (>70% = +); Cross-reactive T cell response [10]: 12 SFU; Significant response as a percentage of maximal peptide SFU (subject two): ′′′ (41-70% = ′′′); Cross-reactive T cell response [11]: 44 SFU"
